Data reported in patent US10881719B2, “Combinatorial androgen deprivation with an androgen receptor vaccine” (Wisconsin Alumni Research Foundation, priority 2016, dated 2021).
Square brackets hold non-standard residues; d marks the D form. Peptide text beside a SMILES is read from it. * marks the point of attachment. dPhe(4-NHCONH2) = NC(=O)Nc1ccc(C[C@@H](N)C(=O)O)cc1; Dihydroorotyl(S) = O=C1C[C@@H](C(=O)*)NC(=O)N1; dPhe(4-Cl) = N[C@H](Cc1ccc(Cl)cc1)C(=O)O; Phe(4-NH2) = Nc1ccc(C[C@H](N)C(=O)O)cc1; d2Nal = N[C@H](Cc1ccc2ccccc2c1)C(=O)O; Lys(iPr) = CC(C)NCCCC[C@H](N)C(=O)O; d3Pal = N[C@H](Cc1cccnc1)C(=O)O

Tests used:
[1] = test system: Myc-CaP/AS tumors; assay: AR expression in MycCaP tumors in vivo after chemical castration, intracellular staining; set-up: species or system FVB mice; settings: MycCaP model in vivo, degarelix vs sham, tumors at outgrowth
Excerpt: Briefly, Human 22Rv1 prostate cancer cells cultured in androgen replete (FCS) or—deprived (CSS) conditions (FIG. 7A), or mouse MycCaP cells serially passaged in untreated (MycCaP/AS) or castrate (MycCaP/CR) mice (FIG. 7B) were collected and analyzed for AR expression by qPCR (left panels), ELISA (center panels), and intracellular staining (ICS, right panels). FIG. 7C, FVB mice were challenged with MycCaP/AS tumor cells, and given degarelix or a sham treatment. At the time of outgrowth, tumors were collected and analyzed for AR expression by intracellular flow cytometry (example histogram with samples stained with IgG or AR-intracellular antibodies; quantified in right panels). FIG. 7D, AR-specific CD8+ T cells were cultured with 22Rv1/FCS or 22Rv1/CSS cells, and evaluated for T-cell activation by CD69 expression (left panel), IFNγ and TNFα cytokine expression (center panel), and cytotoxicity (right panel). In all panels, * indicates p<0.05 by Student's t-test.
FVB mice were inoculated subcutaneously with […] Myc-CaP/AS tumor cells, and followed daily for the presence of palpable tumors. Once tumors were palpable, mice were treated subcutaneously with either degarelix (25 mg/kg) or a vehicle sham treatment every four weeks. […] Tumor growth was measured at least three times weekly, and tumor volumes calculated as we've published (19). […]

[2] = test system: Myc-CaP/AS tumors; assay: Myc-CaP/AS tumor growth in FVB mice, ADT with or without immunization; type: in vivo; settings: degarelix alone, MycCaP model
Protocol: Briefly, male FVB mice (n=8) were implanted with MycCaP tumors, treated with degarelix (or sham), and immunized weekly with pTVG-AR or control pTVG4. FIG. 8A, splenocytes were collected and analyzed for immune responses against MycCaP/CR tumor cells by intracellular cytokine staining (left panel) and AR peptide-stimulated splenocytes from pTVG-AR-immunized mice were measured for ability to lyse MycCap/AS vs. MycCap/CR tumor cells (right panel). FIG. 8B depicts mice followed for tumor volume. In all panels, * indicates p<0.05 by Student's t-test. FIG. 8C depicts tumor volume post-challenge of control (sham), degarelix+pTVG4 and degarelix+pTVG-AR.
FVB mice were inoculated subcutaneously with […] Myc-CaP/AS tumor cells, and followed daily for the presence of palpable tumors. Once tumors were palpable, mice were treated subcutaneously with either degarelix (25 mg/kg) or a vehicle sham treatment every four weeks. For immunization studies, degarelix-treated animals were randomized to weekly immunization with 100 μg pTVG4 or pTVG-AR beginning one day after receiving degarelix. Tumor growth was measured at least three times weekly, and tumor volumes calculated as we've published (19). At the time of euthanasia, tumors and spleens were collected. […]

[3] = test system: PTEN-deficient prostate tumors; assay: Autochthonous prostate tumors in PbCre+ PTENfl/fl mice, PET/CT and necropsy; type: in vivo; settings: androgen deprivation (degarelix) vs sham, pre- to post-treatment
Protocol: FVB mice were inoculated subcutaneously with […] Myc-CaP/AS tumor cells, and followed daily for the presence of palpable tumors. Once tumors were palpable, mice were treated subcutaneously with either degarelix (25 mg/kg) or a vehicle sham treatment every four weeks. For immunization studies, degarelix-treated animals were randomized to weekly immunization with 100 μg pTVG4 or pTVG-AR beginning one day after receiving degarelix. Tumor growth was measured at least three times weekly, and tumor volumes calculated as we've published (19). At the time of euthanasia, tumors and spleens were collected. For studies using PTEN-deficient mice, animals began receiving degarelix (25 mg/kg) at 20 weeks (+/−two weeks) of age, followed by biweekly immunization with 100 μg pTVG4 or pTVG-AR beginning one day after ADT. Animals were treated until 40 weeks of age (+/−two weeks) before tissue collection.
All mice were intravenously administered between 5-8 MBq of 124I-CLR1404 and then micro positron emission tomography/computed tomography (PET/CT) scanned 96 hrs post-injection. During scanning, mice were anesthetized with 2% isoflurane inhalation gas mixed with 1 L/min of pure oxygen (27). […]
All PET and CT images were co-registered. Image data were analyzed using the General Analysis tools provided by Siemens Inveon Research Workplace (Siemens Medical Solutions). […]

[4] = test system: prostate tumor cells; assay: AR expression in prostate tumor cells in vitro after treatment with AR antagonists; type: cell-based; settings: after treatment with AR antagonist

Compound: CC(=O)N[C@H](Cc1ccc2ccccc2c1)C(=O)N[C@H](Cc1ccc(Cl)cc1)C(=O)N[C@H](Cc1cccnc1)C(=O)N[C@@H](CO)C(=O)N[C@@H](Cc1ccc(NC(=O)[C@@H]2CC(=O)NC(=O)N2)cc1)C(=O)N[C@H](Cc1ccc(NC(N)=O)cc1)C(=O)N[C@@H](CC(C)C)C(=O)N[C@@H](CCCCNC(C)C)C(=O)N1CCC[C@H]1C(=O)N[C@H](C)C(N)=O [degarelix] (Ac-[d2Nal][dPhe(4-Cl)][d3Pal]S[Phe(4-NH2)](Dihydroorotyl(S))[dPhe(4-NHCONH2)]L[Lys(iPr)]P[dA]-NH2)
- AR expression in tumors [1]: increased AR expression in tumors
- tumor growth [2]: delay in tumor growth
- 124I-CLR1404 mean and max tumor uptake [3]: decreased 124I-CLR1404 mean and max tumor uptake

Compound: CNC(=O)c1ccc(N2C(=S)N(c3ccc(C#N)c(C(F)(F)F)c3)C(=O)C2(C)C)cc1F [enzalutamide]
- AR expression in prostate tumor cells [4]: increased AR expression
